In ChEMBL document CHEMBL1201862, “PubChem BioAssay data set” (2004):
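Grown in 96-well plates, cells were treated for 48 hours with each compound at five concentrations. Insufficient inhibition: endpoint recorded as highest concentration tested. The concentration for 50% growth inhibition is given as GI50.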 The source made the active and inactive calls. No stated cut-off is given here; in the data, active = GI50 up to about 1.1 µM and inactive = higher.

Tests used:
Assay in all cases: inhibition of tumour cell growth, NCI panel, 48 h
[1] = test system: A549
[2] = test system: DMS-273
[3] = test system: HOP-62
[4] = test system: KM-20L2
[5] = test system: KM12
[6] = test system: M14
[7] = test system: OVCAR-5
[8] = test system: SF-539
[9] = test system: SN12C
[10] = test system: SNB-75
[11] = test system: TK-10
[12] = test system: UO-31
[13] = test system: K562
[14] = test system: MOLT-4
[15] = test system: RPMI-8226
[16] = test system: DU-145
[17] = test system: MCF7
[18] = test system: MDA-MB-231
[19] = test system: MDA-N
[20] = test system: PC-3

Measured: GI50

N=C(c1ccccc1)N1CCCCC1
inactive: [1] > 100 µM | [2] > 100 µM | [3] > 100 µM | [4] > 100 µM | [5] > 100 µM | [6] > 100 µM | [7] > 100 µM | [8] > 100 µM | [9] > 100 µM | [10] > 100 µM | [11] > 100 µM | [12] > 100 µM

COc1ccc(O)cc1C=O
inactive: [1] > 100 µM | [2] 87.9 µM | [3] > 100 µM | [13] 33.9 µM | [4] > 100 µM | [5] 23.8 µM | [6] 43.2 µM | [14] 67.6 µM | [7] > 100 µM | [15] 60.1 µM | [8] > 100 µM | [9] > 100 µM | [11] > 100 µM | [12] > 100 µM

NS(=O)(=O)c1ccc(NC(=O)c2cccn3c(=O)c4ccccc4nc23)cc1
inactive: [1] > 100 µM | [3] > 100 µM | [13] > 100 µM | [4] > 100 µM | [5] 41.2 µM | [6] > 100 µM | [14] 80.2 µM | [15] > 100 µM | [8] > 100 µM | [9] > 100 µM | [10] > 100 µM | [11] > 100 µM | [12] 85.5 µM

Nc1ncnc2c1ncc(=O)n2C1CC(O)C(CO)O1 (centres undefined)
inactive: [1] > 100 µM | [16] > 100 µM | [3] > 100 µM | [13] > 100 µM | [5] > 100 µM | [6] > 100 µM | [17] > 100 µM | [18] > 100 µM | [19] > 100 µM | [14] > 100 µM | [7] > 100 µM | [20] > 100 µM | [15] > 100 µM | [8] > 100 µM | [9] > 100 µM | [10] > 100 µM | [11] > 100 µM | [12] > 100 µM

C[C@@H]1C[C@]2(C[C@@H](C)C3[C@@H](CC4(C)[C@@H]5CCC6C(C)(C)OC(=O)C=C[C@]67C[C@@]5(CC[C@]34C)OO7)O2)OC1=O (some centres undefined)
inactive: [1] > 100 µM | [2] > 100 µM | [13] 28.1 µM | [6] 48.1 µM | [7] > 100 µM | [15] > 100 µM | [8] 35.8 µM | [9] > 100 µM | [10] 18.4 µM | [11] 52.1 µM | [12] 51.8 µM

O/N=C\c1c2c(cc3c1CCC3)CCC2
inactive: [1] > 100 µM | [16] > 100 µM | [3] > 100 µM | [13] > 100 µM | [5] > 100 µM | [6] > 100 µM | [17] > 100 µM | [18] > 100 µM | [19] > 100 µM | [14] 25 µM | [7] > 100 µM | [20] > 100 µM | [15] > 100 µM | [8] > 100 µM | [9] > 100 µM | [10] 36.5 µM | [11] > 100 µM | [12] > 100 µM

N#C[BH2-][n+]1ccc(C(=O)NNCC(F)(F)F)cc1
inactive: [1] > 100 µM | [16] > 100 µM | [3] > 100 µM | [13] > 100 µM | [5] > 100 µM | [6] > 100 µM | [17] > 100 µM | [18] > 100 µM | [19] > 100 µM | [14] > 100 µM | [7] > 100 µM | [20] > 100 µM | [15] > 100 µM | [8] > 100 µM | [9] > 100 µM | [10] > 100 µM | [11] > 100 µM | [12] > 100 µM
